Reference: ChEMBL document CHEMBL3045583, “Increasing antitumor activity in vivo by enhancing acridine dimer solubility with salt preparations” (Med Chem Res, 2010)
Values belong to the molecule of their own block, whether it stands above or below them. Calls of active or inactive are those of the source. No cut-off for these calls is given here.

Tests used:
[1] = Solubility of compound in water at 1 mg/ml; format: physicochemical; details: buffer
[2] = Solubility of compound in methanol at 3.3 mg/ml; format: physicochemical
[3] = Solubility of compound in saline at 0.4 mg/ml; format: physicochemical; details: buffer
[4] = Solubility of compound in water at 0.8 mg/ml; format: physicochemical; details: buffer
[5] = Solubility of compound in methanol at 1 mg/ml; format: physicochemical
[6] = Solubility of compound in saline at 1 mg/ml; format: physicochemical; details: buffer
COLO 205 [7] = test: Antitumor activity against Homo sapiens (human) COLO205 xenografted in SCID mouse assessed as inhibition of tumor growth at 7.5 to 10 mg/kg, iv twice daily for 3 days for 2 administered as solution in 2.5% cremophor; format: functional, organism-based
COLO 205 [8] = test: Antitumor activity against Homo sapiens (human) COLO205 xenografted in SCID mouse assessed as tumor growth at 1 to 5 mg/kg, iv twice daily for 3 days for 2 administered as solution in 2.5% cremophor; format: functional, organism-based
COLO 205 [9] = test: Antitumor activity against Homo sapiens (human) COLO205 xenografted in SCID mouse assessed as tumor growth at 10 to 20 mg/kg, iv qd for 5 days for 2 administered as solution in 1% carboxymethy-cellulose; format: functional, organism-based
COLO 205 [10] = test: Antitumor activity against Homo sapiens (human) COLO205 xenografted in SCID mouse assessed as tumor growth at 5 to 20 mg/kg, ip 4 times daily for 3 days administered as solution in 1% carboxymethy-cellulose; format: functional, organism-based
COLO 205 [11] = test: Antitumor activity against Homo sapiens (human) COLO205 xenografted in SCID mouse assessed as inhibition of tumor growth at 2.5 to 10 mg/kg, iv twice daily for 3 days for 2 administered as solution in water; format: functional, organism-based
[12] = Solubility of compound in water at 8 mg/ml; format: physicochemical; details: buffer

solubility [1]: Insoluble | solubility [2]: soluble | solubility [3]: soluble
SMILES: COc1ccc2nc3cc(Cl)ccc3c(NCCCNCCCNc3c4ccc(Cl)cc4nc4ccc(OC)cc34)c2c1.O=C(O)C(F)(F)F.O=C(O)C(F)(F)F.O=C(O)C(F)(F)F

solubility [4]: Insoluble | solubility [5]: soluble | solubility [6]: Insoluble
SMILES: COc1ccc2nc3cc(Cl)ccc3c(NCCCNCCCNc3c4ccc(Cl)cc4nc4ccc(OC)cc34)c2c1.CS(=O)(=O)O

SMILES: COc1ccc2nc3cc(Cl)ccc3c(NCCCNCCCNc3c4ccc(Cl)cc4nc4ccc(OC)cc34)c2c1 [listing 1 of 2 here]
TGI (COLO 205 [7]): Active | Activity (COLO 205 [8]): inactive | Activity (COLO 205 [9]): inactive | Activity (COLO 205 [10]): inactive | TGI (COLO 205 [11]): Active

solubility [5]: soluble | solubility [1]: Insoluble | solubility [6]: Insoluble
SMILES: COc1ccc2nc3cc(Cl)ccc3c(NCCCNCCCNc3c4ccc(Cl)cc4nc4ccc(OC)cc34)c2c1 [listing 2 of 2 here]

solubility [5]: soluble | solubility [6]: Insoluble | solubility [12]: soluble
SMILES: CC(=O)O.CC(=O)O.CC(=O)O.COc1ccc2nc3cc(Cl)ccc3c(NCCCNCCCNc3c4ccc(Cl)cc4nc4ccc(OC)cc34)c2c1
